Experiments:
Assay type in all cases: cell-based
[1] = test system: HS 578T; test: NCI-60 cell line panel: HS 578T; settings: for TGI: Breast Cancer, HS 578T, total growth inhibition; for IC50: Homo sapiens, Hs-578T
Experimental: (§1) It was carried out at the NCI, Bethesda, MD, USA, utilizing their standard protocol.

[2] = test system: CCRF-CEM; test: NCI-60 cell line panel: CCRF-CEM; settings: Leukemia; for IC50: Homo sapiens; for TGI: total growth inhibition
Experimental: as §1

[3] = test system: CAKI-1; test: NCI-60 cell line panel: CAKI-1; design: TGI: unit not given here; settings: Renal Cancer; for IC50: Homo sapiens; for TGI: total growth inhibition
Experimental: as §1

[4] = test system: PC-3; test: NCI-60 cell line panel: PC-3; settings: Prostate Cancer; for IC50: Homo sapiens; for TGI: total growth inhibition
Experimental: as §1

[5] = test system: MDA-MB-468; test: NCI-60 cell line panel: MDA-MB-468; settings: Breast Cancer; for TGI: total growth inhibition; for IC50: Homo sapiens
Experimental: as §1

[6] = test system: MCF7; test: NCI-60 cell line panel: MCF7; settings: Breast Cancer; for TGI: total growth inhibition; for IC50: Homo sapiens
Experimental: as §1

[7] = test system: HCT-116; test: NCI-60 cell line panel: HCT-116; settings: Colon Cancer; for TGI: total growth inhibition; for IC50: Homo sapiens
Experimental: as §1

[8] = test system: BT-549; test: NCI-60 cell line panel: BT-549; settings: Breast Cancer; for TGI: total growth inhibition; for IC50: Homo sapiens
Experimental: as §1

[9] = test system: 786-0; test: NCI-60 cell line panel: 786-0; settings: Renal Cancer; for IC50: Homo sapiens; for TGI: total growth inhibition
Experimental: as §1

[10] = test system: OVCAR-4; test: NCI-60 cell line panel: OVCAR-4; settings: Ovarian Cancer; for IC50: Homo sapiens
Experimental: as §1

[11] = test system: DU-145; test: NCI-60 cell line panel: DU-145; settings: Prostate Cancer; for IC50: Homo sapiens; for TGI: total growth inhibition
Experimental: as §1

[12] = test system: hepatocellular carcinoma cell lines; test: Screening against HCC cell lines
Experimental: The target compounds were tested against hepatocellular carcinoma cell lines. Compounds 1j. 13a. 13b. 13c. […] The mean inhibition percentage values are illustrated in Table 9.
(§2) Two HCC cell lines (Hep3B and HepG2) were used for screening the antiproliferative activity of the synthesized compounds. The cell lines were obtained from the European Collection of Cell Cultures (ECACC, UK) and maintained in Dulbecco's Modified Eagle Medium (DMEM: Sigma-Aldrich) supplemented with 10% fetal bovine serum (FBS) and 1% penicillin/streptomycin and incubated at 37° C. in a 5% CO2 air atmosphere. In addition, WI-38 normal cell line was used to investigate the safety of these compounds.
(§3) MTT assay was conducted to calculate the IC50 of the compounds following the reported procedure . Briefly, the cells were seeded in 96-well tissue culture plates with a density of 5×10^4 cells/well and incubated overnight at 37° C. in a 5% CO2 air atmosphere. After that, cells were treated with the newly synthesized compounds or sorafenib as a positive control. DMSO was used as a negative control. After 48 h, the media were aspirated, and replaced with media containing 0.5 mg/mL of MTT tetrazolium dye (Sigma-Aldrich) for 2 h at 37° C. Finally, the media were removed and 200 μL of DMSO was added to solubilize the formazan crystals. Absorbance was then measured at 570 nm using Varioskan Flash multimode plate reader (Thermo Scientific, Massachusetts, USA).

[13] = test system: HepG2; test: MTT assay, HepG2 HCC cell line; settings: Homo sapiens, 48 h, mean of triplicate assays ± SEM
Experimental: as §2
as §3, with “After that, cells were treated with the newly synthesized compounds or sorafenib as a positive control.” left out

[14] = test system: SK-MEL-28; test: NCI-60 cell line panel: SK-MEL-28; settings: Melanoma; for IC50: Homo sapiens; for TGI: total growth inhibition
Experimental: as §1

[15] = test system: SK-MEL-5; test: NCI-60 cell line panel: SK-MEL-5; settings: Melanoma; for IC50: Homo sapiens; for TGI: total growth inhibition
Experimental: as §1

[16] = test system: NCI/ADR-RES; test: NCI-60 cell line panel: NCI/ADR-RES; design: TGI: unit not given here; settings: Ovarian Cancer; for IC50: Homo sapiens; for TGI: total growth inhibition
Experimental: as §1

[17] = test system: HL-60(TB); test: NCI-60 cell line panel: HL-60(TB); design: TGI: unit not given here; settings: Leukemia; for IC50: Homo sapiens; for TGI: total growth inhibition
Experimental: as §1

[18] = test system: HCT-15; test: NCI-60 cell line panel: HCT-15; settings: Colon Cancer; for TGI: total growth inhibition; for IC50: Homo sapiens
Experimental: as §1

[19] = test system: HOP-92; test: NCI-60 cell line panel: HOP-92; design: TGI: unit not given here; settings: Non-Small Cell Lung Cancer; for IC50: Homo sapiens; for TGI: total growth inhibition
Experimental: as §1

[20] = test system: HCC-2998; test: NCI-60 cell line panel: HCC-2998; settings: Colon Cancer; for TGI: total growth inhibition; for IC50: Homo sapiens
Experimental: as §1

[21] = test system: SNB-19; test: NCI-60 cell line panel: SNB-19; settings: CNS Cancer; for TGI: total growth inhibition; for IC50: Homo sapiens
Experimental: as §1

[22] = test system: UACC-62; test: NCI-60 cell line panel: UACC-62; settings: Melanoma; for IC50: Homo sapiens; for TGI: total growth inhibition
Experimental: as §1

[23] = test system: MDA-MB-435; test: NCI-60 cell line panel: MDA-MB-435; design: TGI: unit not given here; settings: Melanoma; for IC50: Homo sapiens; for TGI: total growth inhibition
Experimental: as §1

[24] = test system: OVCAR-8; test: NCI-60 cell line panel: OVCAR-8; settings: Ovarian Cancer; for IC50: Homo sapiens; for TGI: total growth inhibition, in µM (unit assumed)
Experimental: as §1

[25] = test system: HOP-62; test: NCI-60 cell line panel: HOP-62; settings: Non-Small Cell Lung Cancer; for IC50: Homo sapiens; for TGI: total growth inhibition
Experimental: as §1

[26] = test system: KM12; test: NCI-60 cell line panel: KM12; settings: Colon Cancer; for TGI: total growth inhibition; for IC50: Homo sapiens
Experimental: as §1

[27] = test system: COLO 205; test: NCI-60 cell line panel: COLO 205; design: TGI: unit not given here; settings: Colon Cancer; for TGI: total growth inhibition; for IC50: Homo sapiens
Experimental: as §1

[28] = test system: NCI-H23; test: NCI-60 cell line panel: NCI-H23; settings: Non-Small Cell Lung Cancer
Experimental: as §1

Structure (SMILES): CNC(=O)c1cc(-c2ccc(NC(=O)Nc3ccc(N4CCN(C)CC4)c(C(F)(F)F)c3)cc2)nc2cccnc12 [Compound 13b, N-Methyl-2-(4-(3-(4-(4-methylpiperazin-1-yl)-3-(trifluoromethyl)phenyl)ureido)phenyl)-1,5-naphthyridine-4-carboxamide]
- TGI [1]: 38.9 µM
- IC50 [1]: 15 µM
- IC50 [2]: 3.16 µM
- TGI [2]: 74.1 µM
- IC50 [3]: 16.1 µM
- TGI [3]: 29.6
- IC50 [4]: 15.1 µM
- TGI [4]: 30.1 µM
- TGI [5]: 32.9 µM
- IC50 [5]: 14.8 µM
- TGI [6]: 3.45 µM
- IC50 [6]: 1.67 µM
- TGI [7]: 75.6 µM
- IC50 [7]: 4.09 µM
- TGI [8]: 35.3 µM
- IC50 [8]: 16.5 µM
- IC50 [9]: 1.81 µM
- TGI [9]: 3.52 µM
- IC50 [10]: 15.7 µM
- TGI ([10]; total growth inhibition, in µM (unit assumed)): 31.6
- IC50 [11]: 17.6 µM
- TGI [11]: 35.6 µM
- inhibition activity against hepatocellular carcinoma cell lines compared with sorafenib [12]: higher inhibition activity than sorafenib
- IC50 [13]: 1.48 ± 0.09 µM
- IC50 [14]: 1.67 µM
- TGI [14]: 3.11 µM
- IC50 [15]: 17.5 µM
- TGI [15]: 31.7 µM
- IC50 [16]: 14.2 µM
- TGI [16]: 45.4
- IC50 [17]: 16.2 µM
- TGI [17]: 38.7
- TGI [18]: 4.33 µM
- IC50 [18]: 2.07 µM
- IC50 [19]: 6.54 µM
- TGI [19]: 100
- TGI [20]: 34.6 µM
- IC50 [20]: 18 µM
- TGI [21]: 33.2 µM
- IC50 [21]: 16.8 µM
- IC50 [22]: 18.4 µM
- TGI [22]: 33.9 µM
- IC50 [23]: 1.75 µM
- TGI [23]: 3.27
- IC50 [24]: 17.4 µM
- TGI [24]: 35.4
- IC50 [25]: 16.4 µM
- TGI [25]: 32.2 µM
- TGI [26]: 43.3 µM
- IC50 [26]: 17.4 µM
- TGI [27]: 32.8
- IC50 [27]: 16.8 µM

Structure (SMILES): CCN1CCN(c2ccc(NC(=O)Nc3ccc(-c4cc(C(=O)NC)c5ncccc5n4)cc3)cc2C(F)(F)F)CC1 [Compound 13c, 2-(4-(3-(4-(4-Ethylpiperazin-1-yl)-3-(trifluoromethyl)phenyl)ureido)phenyl)-N-methyl-1,5-naphthyridine-4-carboxamide]
- TGI [1]: 6.88 µM
- IC50 [1]: 2.39 µM
- IC50 [2]: 0.46 µM
- TGI [2]: 1.27 µM
- IC50 [3]: 3.01 µM
- TGI [3]: 5.60
- IC50 [4]: 2.88 µM
- TGI [4]: 6.03 µM
- TGI [5]: 5.03 µM
- IC50 [5]: 2.48 µM
- TGI [6]: 0.61 µM
- IC50 [6]: 0.29 µM
- TGI [7]: 4.83 µM
- IC50 [7]: 1.12 µM
- TGI [8]: 5.67 µM
- IC50 [8]: 2.78 µM
- IC50 [9]: 0.3 µM
- TGI [9]: 0.58 µM
- IC50 [10]: 2.63 µM
- IC50 [11]: 2.23 µM
- TGI [11]: 4.9 µM
- IC50 ([28]; Homo sapiens): 2.68 µM
- TGI ([28]; total growth inhibition): 5.68 µM
- inhibition activity against hepatocellular carcinoma cell lines compared with sorafenib [12]: higher inhibition activity than sorafenib
- IC50 [14]: 0.32 µM
- TGI [14]: 0.58 µM
- IC50 [15]: 2.05 µM
- TGI [15]: 4.26 µM
- IC50 [16]: 1.78 µM
- TGI [16]: 8.09
- IC50 [17]: 3.42 µM
- TGI [17]: >18.0
- TGI [18]: 0.7 µM
- IC50 [18]: 0.33 µM
- IC50 [19]: 2.45 µM
- TGI [19]: 5.67
- TGI [20]: 5.31 µM
- IC50 [20]: 2.83 µM
- TGI [21]: 5.48 µM
- IC50 [21]: 2.97 µM
- IC50 [22]: 3.06 µM
- TGI [22]: 5.66 µM
- IC50 [23]: 0.27 µM
- TGI [23]: 0.56
- IC50 [24]: 3.85 µM
- TGI [24]: 10.50
- IC50 [25]: 2.79 µM
- TGI [25]: 5.41 µM
- TGI [26]: 6.65 µM
- IC50 [26]: 3.25 µM
- TGI [27]: 14.20
- IC50 [27]: 4.15 µM
